Entries after “also recorded” stand apart in the source; their conditions may differ. Read-outs that look alike come from different tables or passages of the source.
Key:
P-gp = assay: PET Logan graphical analysis of brain VT, baseline and after tariquidar P-gp block; format: in vivo, Sprague–Dawley rats; details: for Kp: Sprague-Dawley; for Kp / Increase in cerebral distribution volume (VT) after tariquidar compared with baseline: rat; for P-gp substrate character: conclusion from tariquidar predosing studies in rats; for Increase in cerebral distribution volume (VT) after tariquidar compared with baseline: tariquidar 15 mg·kg^−1 predosing
Description: (§1) Following cannulation of the femoral vein, animals were positioned in pairs in a double LSO/LYSO layer high-resolution research tomograph (CTI/Siemens, Knoxville, TN, USA). First, for attenuation and scatter correction purposes, a transmission scan was acquired using a 740-MBq two-dimensional fan-collimated ^137Cs (662 keV) moving point source. Next, a dynamic emission scan was acquired immediately following administration of 17.1 ± 2.1 MBq (mean ± SD) ^11C]phenytoin to each rat. Two animals had one single ^11C]phenytoin scan; two animals had two consecutive scans, and two had three consecutive scans. Finally, all animals underwent an ^18F]FDG scan before being euthanized. Tariquidar, 15 mg·kg^−1, was used to completely block P-gp, while probenecid, 150 mg·kg^−1, was used to inhibit multi-resistant protein (MRP) efflux proteins. Tariquidar and probenecid were administered i.v. 20 min prior to the scan start as a 10-min infusion. All animals, except one, were scanned without any treatment prior to the first ^11C]phenytoin scan. Of the animals that had two scans, one underwent two post-tariquidar scans (animal 4, Table 1). […] Animals that underwent three consecutive scans had one baseline, one post probenecid and one post-tariquidar scan. During each scan, emission data were acquired for 60 min in list mode and rebinned into the following frame sequence: 7 × 10, 1 × 20, 3 × 30, 2 × 60, 2 × 150, 2 × 300 and 4 × 600 s. Following corrections for decay, dead time, attenuation, random and scatter, scans were reconstructed using a 3D ordinary Poisson ordered subsets expectation maximization algorithm. […] PET image data were analyzed using the freely available software package Amide 0.9 [31]. A magnetic resonance (MR)-based rat brain atlas was used to define five regions of interest (ROIs): the hippocampus, occipital cortex, parietal cortex, caudate putamen and cerebellum. The MR atlas including all ROIs was aligned visually with the summed ^18F]FDG image for each rat. ROIs were then projected onto all frames of all ^11C]phenytoin scans, resulting in ^11C]phenytoin time-activity curves for each scan and rat.
(§2) During each [^11C]phenytoin scan, arterial blood samples of 0.1 mL were taken at 20 and 40 s and at 1, 2, 5, 15, 30 and 60 min after [^11C]phenytoin injection. For animals that underwent three scans, the amount of blood withdrawn was reduced by replacing the two samples at 15 and 30 min with a single 20-min sample. Plasma was obtained by centrifugation at 4,000 rpm for 5 min at 4°C, and activity in both plasma and whole blood was measured in an automated 1282 Compugamma CS Universal Gamma Counter (LKB Wallac, Turku, Finland), cross-calibrated against the PET scanner. Standardized uptake values (SUVs) as a function of time were derived by normalizing measured radioactivity concentrations against injected dose and body weight.
(§3) To obtain a model independent estimate of the brain-to-plasma partition coefficient, often referred to as volume of distribution, Logan graphical analysis was used. Before Logan analysis, both brain and plasma concentrations were corrected for labeled metabolites. As metabolite fractions were not measured at each plasma or mid-frame time point, linear regression was used to estimate the fraction of intact ^11C]phenytoin at each time point.

[1] = tested on: multi-resistant protein (MRP) efflux proteins; assay: PET Logan graphical analysis of brain VT after probenecid; format: in vivo, Sprague–Dawley rats; details: for Kp: Sprague-Dawley, rat, iv, with probenecid 150 mg/kg i.v., after probenecid 150 mg·kg^−1 i.v., n = 2, metabolite-corrected
Description: as §1, §2, §3

[2] = parameters: method as in PMID 98619; details: dosage of 14 mg/kg, rhesus monkeys; cited from earlier work

Kp (P-gp; caudate putamen (relative to plasma), intravenous, baseline, n = 5, metabolite-corrected plasma input and brain data, read-out: VT (Logan), caudate putamen): 0.98 ± 0.08 | Kp (P-gp; caudate putamen (relative to plasma), iv, with tariquidar 15 mg/kg i.v., after tariquidar 15 mg·kg^−1 i.v., n = 5, metabolite-corrected, read-out: VT (Logan), caudate putamen): 1.48 ± 0.12 | Kp (P-gp; cerebellum (relative to plasma), intravenous, baseline, n = 5, metabolite-corrected plasma input and brain data, read-out: VT (Logan), cerebellum): 1.02 ± 0.08 | Kp (P-gp; cerebellum (relative to plasma), iv, with tariquidar 15 mg/kg i.v., after tariquidar 15 mg·kg^−1 i.v., n = 5, metabolite-corrected, read-out: VT (Logan), cerebellum): 1.48 ± 0.09 | Kp (P-gp; hippocampus (relative to plasma), intravenous, baseline, n = 5, metabolite-corrected plasma input and brain data, read-out: VT (Logan), hippocampus): 0.96 ± 0.09 | Kp (P-gp; hippocampus (relative to plasma), iv, with tariquidar 15 mg/kg i.v., after tariquidar 15 mg·kg^−1 i.v., n = 5, metabolite-corrected, read-out: VT (Logan), hippocampus): 1.43 ± 0.07 | Kp (P-gp; occipital cortex (relative to plasma), intravenous, baseline, n = 5, metabolite-corrected plasma input and brain data, read-out: VT (Logan), occipital cortex): 0.91 ± 0.06 | Kp (P-gp; occipital cortex (relative to plasma), iv, with tariquidar 15 mg/kg i.v., after tariquidar 15 mg·kg^−1 i.v., n = 5, metabolite-corrected, read-out: VT (Logan), occipital cortex): 1.3 ± 0.11 | Kp (P-gp; parietal cortex (relative to plasma), intravenous, baseline, n = 5, metabolite-corrected plasma input and brain data, read-out: VT (Logan), parietal cortex): 0.91 ± 0.08 | Kp (P-gp; parietal cortex (relative to plasma), iv, with tariquidar 15 mg/kg i.v., after tariquidar 15 mg·kg^−1 i.v., n = 5, metabolite-corrected, read-out: VT (Logan), parietal cortex): 1.35 ± 0.11 | Increase in cerebral distribution volume (VT) after tariquidar compared with baseline (P-gp): 45% | Increase in cerebral distribution volume (VT) after tariquidar compared with baseline (P-gp; listed as 11C]phenytoin): about 45% | Kp ([1]; caudate putamen (relative to plasma), read-out: VT (Logan), caudate putamen): 0.57 ± 0.01 | Kp ([1]; cerebellum (relative to plasma), read-out: VT (Logan), cerebellum): 0.61 ± 0.01 | Kp ([1]; hippocampus (relative to plasma), read-out: VT (Logan), hippocampus): 0.59 | Kp ([1]; occipital cortex (relative to plasma), read-out: VT (Logan), occipital cortex): 0.59 | Kp ([1]; parietal cortex (relative to plasma), read-out: VT (Logan), parietal cortex): 0.57 ± 0.03 | Change in VT after probenecid (interaction with MRP) ([1]; probenecid 150 mg·kg^−1, n = 2, animals in poor condition): no indication of an increase in VT
Structure (SMILES): O=C1N[11C](=O)NC1(c1ccccc1)c1ccccc1 [[^11C]phenytoin]
P-gp substrate character (P-gp): rather weak P-gp substrate; also recorded: moderate P-gp substrate | P-gp substrate character (P-gp; listed as 11C]phenytoin): rather moderate affinity for P-gp | Brain uptake [2]: high brain uptake
